This passage reports IC50 results from ChEMBL document CHEMBL1153814, “Synthesis of 3-deoxypentacyclic triterpene derivatives as inhibitors of glycogen phosphorylase” (J Nat Prod, 2009).

The structures appear in SMILES notation.

The experiment addresses T1, Glycogen phosphorylase, muscle form (Oryctolagus cuniculus, UniProt P00489).
T1 sequence (P00489 whole entry): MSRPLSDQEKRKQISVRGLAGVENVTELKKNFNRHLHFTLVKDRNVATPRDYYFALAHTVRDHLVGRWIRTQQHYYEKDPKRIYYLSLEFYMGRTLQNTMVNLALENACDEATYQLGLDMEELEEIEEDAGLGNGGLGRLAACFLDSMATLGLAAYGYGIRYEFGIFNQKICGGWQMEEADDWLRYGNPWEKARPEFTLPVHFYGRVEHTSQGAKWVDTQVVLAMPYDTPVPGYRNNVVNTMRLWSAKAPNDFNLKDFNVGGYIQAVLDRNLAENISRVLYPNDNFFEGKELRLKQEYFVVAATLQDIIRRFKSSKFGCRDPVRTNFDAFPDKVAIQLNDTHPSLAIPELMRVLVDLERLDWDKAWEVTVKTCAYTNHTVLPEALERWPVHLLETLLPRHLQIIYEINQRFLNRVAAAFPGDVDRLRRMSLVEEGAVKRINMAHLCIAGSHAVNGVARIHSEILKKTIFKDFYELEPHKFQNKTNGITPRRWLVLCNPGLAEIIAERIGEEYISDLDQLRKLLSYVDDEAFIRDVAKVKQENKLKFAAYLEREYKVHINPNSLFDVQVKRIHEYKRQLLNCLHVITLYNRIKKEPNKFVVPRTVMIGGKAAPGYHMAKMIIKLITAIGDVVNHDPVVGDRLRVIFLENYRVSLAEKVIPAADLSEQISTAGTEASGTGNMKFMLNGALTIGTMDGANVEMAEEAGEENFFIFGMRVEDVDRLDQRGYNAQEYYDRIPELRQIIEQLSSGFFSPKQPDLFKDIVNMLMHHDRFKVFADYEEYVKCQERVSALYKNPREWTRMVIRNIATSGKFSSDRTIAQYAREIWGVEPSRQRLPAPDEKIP
The experiment is described as follows: Inhibition of rabbit muscle glycogen phosphorylase assessed as release of phosphate from glucose-1-phosphate after 25 mins.

Turning to `CC1(C)CC[C@]2(C(=O)OCc3ccccc3)CC[C@]3(C)C(=CC[C@@H]4[C@@]5(C)C[C@@H](OC(=O)CCC(=O)O)CC(C)(C)[C@@H]5CC[C@]43C)[C@@H]2C1`, the IC50 (as a rule, the point on the concentration scale where inhibition reaches its midpoint) (read-out: IC50) amounted to 80.9 µM. In the case of `CC1(C)CC[C@]2(C(=O)O)CC[C@]3(C)C(=CC[C@@H]4[C@@]5(C)C[C@@H](OC(=O)c6ccccc6)CC(C)(C)[C@@H]5CC[C@]43C)[C@@H]2C1`, the IC50 (read-out: IC50) was 40.7 µM.

With `CC1CC[C@]2(C(=O)OCc3ccccc3)CC[C@]3(C)C(=CC[C@@H]4[C@@]5(C)C[C@H](O)CC(C)(C)[C@@H]5CC[C@]43C)[C@@H]2[C@H]1C` (stereo partly specified), the 50% inhibitory concentration (IC50) (read-out: IC50) was determined as 22.3 µM.

With `CCCOC(=O)[C@]12CCC(C)(C)C[C@H]1C1=CC[C@@H]3[C@@]4(C)C[C@H](O)CC(C)(C)[C@@H]4CC[C@@]3(C)[C@]1(C)CC2`, the 50% inhibitory concentration (IC50) (read-out: IC50) was 27.3 µM. The same measure, in the same setting: the same measure for `C[C@H]1[C@H](C)CC[C@]2(C(=O)O)CC[C@]3(C)C(=CC[C@@H]4[C@@]5(C)CC[C@H](O)C(C)(C)[C@@H]5CC[C@]43C)[C@H]12` [URSOLIC ACID]: 15.3 µM. On the same count and under the same terms, the same measure for `CCC(=O)O[C@H]1CC(C)(C)[C@@H]2CC[C@]3(C)[C@H](CC=C4[C@@H]5CC(C)(C)CC[C@]5(C(=O)OCc5ccccc5)CC[C@]43C)[C@@]2(C)C1`: 121 µM.

With `COC(=O)[C@]12CCC(C)(C)C[C@H]1C1=CC[C@@H]3[C@@]4(C)C[C@H](O)CC(C)(C)[C@@H]4CC[C@@]3(C)[C@]1(C)CC2`, where the note is “read-out: IC50”, the IC50 was determined as 28.1 µM. Take `C[C@@H]1[C@H]2C3=CC[C@@H]4[C@@]5(C)C[C@H](O)CC(C)(C)[C@@H]5CC[C@@]4(C)[C@]3(C)CC[C@@]2(C(=O)O)CC[C@@H]1C`: where the note is “read-out: IC50”, the IC50 was determined as 5.5 µM. For `CC1(C)CC[C@]2(C(=O)OCCCCBr)CC[C@]3(C)C(=CC[C@@H]4[C@@]5(C)C[C@H](O)CC(C)(C)[C@@H]5CC[C@]43C)[C@@H]2C1`, under “read-out: IC50”, the half-maximal inhibitory concentration (IC50) stood at 48.7 µM. Still for that read-out and setting: the same measure for `C[C@H]1[C@H](C)CC[C@]2(C(=O)O)CC[C@]3(C)C(=CC[C@@H]4[C@@]5(C)CC(=O)CC(C)(C)[C@@H]5CC[C@]43C)[C@H]12`: 28.9 µM. As to `CC1(C)CC[C@]2(C(=O)O)CC[C@]3(C)C(=CC[C@@H]4[C@@]5(C)C[C@@H](OC(=O)CCC(=O)O)CC(C)(C)[C@@H]5CC[C@]43C)[C@@H]2C1`, the IC50 result was “Not Active”. As for `C[C@H]1[C@H](C)CC[C@]2(C(=O)OCc3ccccc3)CC[C@]3(C)C(=CC[C@@H]4[C@@]5(C)CC(=O)CC(C)(C)[C@@H]5CC[C@]43C)[C@H]12`, under “read-out: IC50”, the IC50 turned out to be 24.2 µM. On to `CC1(C)CC[C@]2(C(=O)OCc3ccccc3)CC[C@]3(C)C(=CC[C@@H]4[C@@]5(C)C/C(=N\O)CC(C)(C)[C@@H]5CC[C@]43C)[C@@H]2C1`, for which the IC50 (read-out: IC50) came out at 16.3 µM. Turning to `CC1(C)CC[C@]2(C(=O)OCCBr)CC[C@]3(C)C(=CC[C@@H]4[C@@]5(C)C[C@H](O)CC(C)(C)[C@@H]5CC[C@]43C)[C@@H]2C1`, the half-maximal inhibitory concentration (IC50) (read-out: IC50) worked out at 25.4 µM. `CC(=O)O[C@H]1CC(C)(C)[C@@H]2CC[C@]3(C)[C@H](CC=C4[C@@H]5CC(C)(C)CC[C@]5(C(=O)O)CC[C@]43C)[C@@]2(C)C1`: under “read-out: IC50”, the concentration for half-maximal inhibition (IC50) stood at 42.4 µM. In the case of `CC1(C)CC[C@]2(C(=O)OCc3ccccc3)CC[C@]3(C)C(=CC[C@@H]4[C@@]5(C)CC(=O)CC(C)(C)[C@@H]5CC[C@]43C)[C@@H]2C1`, the concentration for half-maximal inhibition (IC50) (read-out: IC50) came to 3.2 µM. For `CCOC(=O)[C@]12CCC(C)(C)C[C@H]1C1=CC[C@@H]3[C@@]4(C)C[C@H](O)CC(C)(C)[C@@H]4CC[C@@]3(C)[C@]1(C)CC2`, the IC50 (read-out: IC50) came out at 15.3 µM. In the case of `CC1(C)CC[C@]2(C(=O)O)CC[C@]3(C)C(=CC[C@@H]4[C@@]5(C)C[C@@H](O)CC(C)(C)[C@@H]5CC[C@]43C)[C@@H]2C1`, the concentration for half-maximal inhibition (IC50) (read-out: IC50) was found to be 8.5 µM. The same measure, in the same setting: the same measure for `C=CCOC(=O)[C@]12CCC(C)(C)C[C@H]1C1=CC[C@@H]3[C@@]4(C)C[C@H](O)CC(C)(C)[C@@H]4CC[C@@]3(C)[C@]1(C)CC2`: 23.1 µM; for `C[C@H]1[C@H](C)CC[C@]2(C(=O)O)CC[C@]3(C)C(=CC[C@@H]4[C@@]5(C)C/C(=N\O)CC(C)(C)[C@@H]5CC[C@]43C)[C@H]12`: 14.7 µM. On to `CCC(=O)O[C@H]1CC(C)(C)[C@@H]2CC[C@]3(C)[C@H](CC=C4[C@@H]5CC(C)(C)CC[C@]5(C(=O)O)CC[C@]43C)[C@@]2(C)C1`, for which the IC50 (read-out: IC50) was determined as 80.2 µM. Turning to `CC1(C)CC[C@]2(C(=O)O)CC[C@]3(C)C(=CC[C@@H]4[C@@]5(C)CC(=O)CC(C)(C)[C@@H]5CC[C@]43C)[C@@H]2C1`, the IC50 (read-out: IC50) came to 14.9 µM.

Regarding `C[C@H]1[C@H](C)CC[C@]2(C(=O)O)CC[C@]3(C)C(=CC[C@@H]4[C@@]5(C)C[C@@H](O)CC(C)(C)[C@@H]5CC[C@]43C)[C@H]12`, the IC50 (read-out: IC50) amounted to 1.2 µM. For `CC(=O)O[C@H]1CC(C)(C)[C@@H]2CC[C@]3(C)[C@H](CC=C4[C@@H]5CC(C)(C)CC[C@]5(C(=O)OCc5ccccc5)CC[C@]43C)[C@@]2(C)C1`, the IC50 result was “Not Active”.

Turning to `CCCC(=O)O[C@H]1CC(C)(C)[C@@H]2CC[C@]3(C)[C@H](CC=C4[C@@H]5CC(C)(C)CC[C@]5(C(=O)OCc5ccccc5)CC[C@]43C)[C@@]2(C)C1`, the 50% inhibitory concentration (IC50) (read-out: IC50) is 108 µM.

With `CCOC(=O)COC(=O)[C@]12CCC(C)(C)C[C@H]1C1=CC[C@@H]3[C@@]4(C)C[C@H](O)CC(C)(C)[C@@H]4CC[C@@]3(C)[C@]1(C)CC2`, the IC50 (read-out: IC50) amounted to 22.5 µM. For the compound `CCCCOC(=O)[C@]12CCC(C)(C)C[C@H]1C1=CC[C@@H]3[C@@]4(C)C[C@H](O)CC(C)(C)[C@@H]4CC[C@@]3(C)[C@]1(C)CC2`, the IC50 (read-out: IC50) stood at 13.8 µM. Consider `C[C@@H]1[C@H]2C3=CC[C@@H]4[C@@]5(C)C[C@@H](O)CC(C)(C)[C@@H]5CC[C@@]4(C)[C@]3(C)CC[C@@]2(C(=O)OCc2ccccc2)CCC1(C)C`, for which, under “read-out: IC50”, the IC50 is 5.6 µM. As to `CC1(C)CC[C@]2(C(=O)OCCCBr)CC[C@]3(C)C(=CC[C@@H]4[C@@]5(C)C[C@H](O)CC(C)(C)[C@@H]5CC[C@]43C)[C@@H]2C1`, the IC50 (read-out: IC50) was 37.2 µM. As to `C[C@H]1[C@H](C)CC[C@]2(C(=O)OCc3ccccc3)CC[C@]3(C)C(=CC[C@@H]4[C@@]5(C)C[C@@H](O)CC(C)(C)[C@@H]5CC[C@]43C)[C@H]12`, the half-maximal inhibitory concentration (IC50) (read-out: IC50) was determined as 55.8 µM. The same measure, in the same setting: the same measure for `CCCC(=O)O[C@H]1CC(C)(C)[C@@H]2CC[C@]3(C)[C@H](CC=C4[C@@H]5CC(C)(C)CC[C@]5(C(=O)O)CC[C@]43C)[C@@]2(C)C1`: 75.6 µM; for `CC1(C)CC[C@]2(C(=O)O)CC[C@]3(C)C(=CC[C@@H]4[C@@]5(C)C[C@H](O)CC(C)(C)[C@@H]5CC[C@]43C)[C@@H]2C1`: 3.5 µM; for `CC1(C)CC[C@]2(C(=O)OCc3ccccc3)CC[C@]3(C)C(=CC[C@@H]4[C@@]5(C)C[C@@H](OC(=O)c6ccccc6)CC(C)(C)[C@@H]5CC[C@]43C)[C@@H]2C1`: 48.4 µM. In the case of `C[C@H]1[C@H](C)CC[C@]2(C(=O)OCc3ccccc3)CC[C@]3(C)C(=CC[C@@H]4[C@@]5(C)C/C(=N\O)CC(C)(C)[C@@H]5CC[C@]43C)[C@H]12`, the concentration for half-maximal inhibition (IC50) (read-out: IC50) was 20.2 µM. Same read-out and setting: the same measure for `CC1(C)CC[C@]2(C(=O)O)CC[C@]3(C)C(=CC[C@@H]4[C@@]5(C)C/C(=N\O)CC(C)(C)[C@@H]5CC[C@]43C)[C@@H]2C1`: 13.1 µM; for `CC1(C)CC[C@]2(C(=O)OCc3ccccc3)CC[C@]3(C)C(=CC[C@@H]4[C@@]5(C)C[C@H](O)CC(C)(C)[C@@H]5CC[C@]43C)[C@@H]2C1`: 4.2 µM.
